According to the NIST ThermoML archive (doi:10.1016/j.fluid.2010.10.018):
± gives the expanded uncertainty stated by the source.

Details: 101.33 kPa, Liquid
[1] = 278 K, Concentric cylinders viscometry
[2] = 283 K, Concentric cylinders viscometry
[3] = 288 K, Concentric cylinders viscometry
[4] = 293 K, Concentric cylinders viscometry
[5] = 298 K, Concentric cylinders viscometry
[6] = 303 K, Concentric cylinders viscometry
[7] = 308 K, Concentric cylinders viscometry
[8] = 313 K, Concentric cylinders viscometry
[9] = 318 K, Concentric cylinders viscometry
[10] = 323 K, Concentric cylinders viscometry
[11] = 328 K, Concentric cylinders viscometry
[12] = 333 K, Concentric cylinders viscometry
[13] = 338 K, Concentric cylinders viscometry
[14] = 343 K, Concentric cylinders viscometry
[15] = 348 K, Concentric cylinders viscometry
[16] = 353 K, Concentric cylinders viscometry
[17] = 358 K, Concentric cylinders viscometry
[18] = 363 K, Concentric cylinders viscometry
[19] = 293 K, Falling or rolling sphere viscometry
[20] = 313 K, Falling or rolling sphere viscometry
[21] = 333 K, Falling or rolling sphere viscometry
[22] = 353 K, Falling or rolling sphere viscometry
[23] = 373 K, Falling or rolling sphere viscometry
[24] = 283 K, Falling or rolling sphere viscometry
[25] = 393 K, Falling or rolling sphere viscometry

Row | SMILES | viscosity [1] [mPa·s] | viscosity [2] [mPa·s] | viscosity [3] [mPa·s] | viscosity [4] [mPa·s] | viscosity [5] [mPa·s] | viscosity [6] [mPa·s] | viscosity [7] [mPa·s] | viscosity [8] [mPa·s] | viscosity [9] [mPa·s] | viscosity [10] [mPa·s] | viscosity [11] [mPa·s] | viscosity [12] [mPa·s] | viscosity [13] [mPa·s] | viscosity [14] [mPa·s] | viscosity [15] [mPa·s] | viscosity [16] [mPa·s] | viscosity [17] [mPa·s] | viscosity [19] [mPa·s] | viscosity [20] [mPa·s] | viscosity [21] [mPa·s] | further results
1 | CCCCCCCCn1cc[n+](C)c1.O=S(=O)([N-]S(=O)(=O)C(F)(F)F)C(F)(F)F | 297.03 ± 16 | 214.79 ± 11 | 159.11 ± 8.3 | 120.46 ± 6.2 | 93.05 ± 4.7 | 73.2 ± 3.7 | 58.53 ± 2.9 | 47.5 ± 2.4 | 39.09 ± 2 | 32.56 ± 1.6 | 27.43 ± 1.4 | 23.35 ± 1.2 | 20.06 ± 1 | 17.38 ± 0.88 | 15.18 ± 0.76 | 13.35 ± 0.67 | 11.83 ± 0.6 | – | – | – | –
2 | CCCCCCCn1cc[n+](C)c1.O=S(=O)([N-]S(=O)(=O)C(F)(F)F)C(F)(F)F | 235 ± 13 | 182.82 ± 9.6 | 136.42 ± 7.1 | 104.17 ± 5.3 | 81.11 ± 4.1 | 64.28 ± 3.2 | 51.75 ± 2.6 | 42.28 ± 2.1 | 34.99 ± 1.8 | 29.3 ± 1.5 | 24.81 ± 1.2 | 21.2 ± 1.1 | 18.3 ± 0.92 | 15.92 ± 0.8 | 13.95 ± 0.7 | 12.31 ± 0.62 | 10.93 ± 0.55 | – | – | – | viscosity [18]: 9.753 ± 0.49 mPa·s
3 | CCCn1cc[n+](C)c1.O=S(=O)([N-]S(=O)(=O)C(F)(F)F)C(F)(F)F | 122.17 ± 6.4 | 92.6 ± 4.8 | 71.78 ± 3.7 | 56.78 ± 2.9 | 45.75 ± 2.3 | 37.43 ± 1.9 | 31.07 ± 1.6 | 26.13 ± 1.3 | 22.23 ± 1.1 | 19.11 ± 0.98 | 16.58 ± 0.85 | 14.5 ± 0.74 | 12.79 ± 0.65 | 11.35 ± 0.58 | 10.14 ± 0.52 | 9.118 ± 0.47 | 8.24 ± 0.42 | 56.4 ± 2.9 | 26.17 ± 1.3 | 14.82 ± 0.76 | viscosity [22]: 9.251 ± 0.48 mPa·s; viscosity [23]: 6.32 ± 0.33 mPa·s
4 | CCn1cc[n+](C)c1.O=S(=O)([N-]S(=O)(=O)C(F)(F)F)C(F)(F)F | 76.05 ± 3.9 | 60.15 ± 3.1 | 48.47 ± 2.5 | 39.71 ± 2 | 33 ± 1.7 | 27.78 ± 1.4 | 23.66 ± 1.2 | 20.37 ± 1 | 17.69 ± 0.9 | 15.5 ± 0.79 | 13.68 ± 0.7 | 12.16 ± 0.62 | 10.87 ± 0.56 | 9.784 ± 0.5 | 8.848 ± 0.45 | 8.041 ± 0.41 | 7.34 ± 0.38 | 39.54 ± 2 | 20.49 ± 1.1 | 12.42 ± 0.64 | viscosity [24]: 59.8 ± 3.1 mPa·s; viscosity [22]: 8.036 ± 0.41 mPa·s
5 | CCCCCCCCCCCCCCn1cc[n+](C)c1.O=S(=O)([N-]S(=O)(=O)C(F)(F)F)C(F)(F)F | – | – | – | – | – | – | – | 98.04 ± 5 | 78.06 ± 3.9 | 63.09 ± 3.2 | 51.68 ± 2.6 | 42.83 ± 2.2 | 35.87 ± 1.8 | 30.36 ± 1.5 | 25.93 ± 1.3 | 22.33 ± 1.1 | 19.38 ± 0.98 | – | – | – | viscosity [18]: 16.95 ± 0.85 mPa·s
6 | CCCCCC[n+]1ccn(C)c1.O=S(=O)([N-]S(=O)(=O)C(F)(F)F)C(F)(F)F | 212.3 ± 12 | 155.94 ± 8.2 | 117.29 ± 6.1 | 90.13 ± 4.6 | 70.61 ± 3.6 | 56.3 ± 2.9 | 45.61 ± 2.3 | 37.47 ± 1.9 | 31.19 ± 1.6 | 26.25 ± 1.3 | 22.35 ± 1.1 | 19.2 ± 0.98 | 16.65 ± 0.85 | 14.55 ± 0.74 | 12.81 ± 0.65 | 11.35 ± 0.58 | 10.13 ± 0.52 | 87.84 ± 4.7 | 37.08 ± 1.9 | 19.29 ± 0.99 | viscosity [22]: 11.48 ± 0.59 mPa·s; viscosity [23]: 7.46 ± 0.38 mPa·s; viscosity [25]: 5.28 ± 0.27 mPa·s
7 | CCCCCn1cc[n+](C)c1.O=S(=O)([N-]S(=O)(=O)C(F)(F)F)C(F)(F)F | 164.73 ± 8.6 | 123.09 ± 6.3 | 93.65 ± 4.8 | 72.76 ± 3.7 | 57.81 ± 2.9 | 46.38 ± 2.3 | 37.92 ± 1.9 | 31.43 ± 1.6 | 26.38 ± 1.3 | 22.4 ± 1.1 | 19.2 ± 0.97 | 16.6 ± 0.84 | 14.48 ± 0.73 | 12.73 ± 0.64 | 11.27 ± 0.57 | 10.04 ± 0.51 | 8.996 ± 0.45 | 78.44 ± 4.1 | 33.94 ± 1.7 | 18.52 ± 0.94 | viscosity [24]: 133.33 ± 7.8 mPa·s; viscosity [22]: 10.89 ± 0.55 mPa·s; viscosity [23]: 7.19 ± 0.36 mPa·s; viscosity [25]: 5.15 ± 0.26 mPa·s
8 | CCCCCCCCC[n+]1ccn(C)c1.O=S(=O)([N-]S(=O)(=O)C(F)(F)F)C(F)(F)F | – | – | – | – | – | – | – | – | – | – | – | – | – | – | – | – | – | – | – | – | viscosity (278 K, Capillary tube (Ostwald / Ubbelohde) method): 348.2 ± 20 mPa·s; viscosity (283 K, Capillary tube (Ostwald / Ubbelohde) method): 249.7 ± 14 mPa·s; viscosity (288 K, Capillary tube (Ostwald / Ubbelohde) method): 183.88 ± 10 mPa·s; viscosity (293 K, Capillary tube (Ostwald / Ubbelohde) method): 138.55 ± 7.3 mPa·s; viscosity (298 K, Capillary tube (Ostwald / Ubbelohde) method): 106.41 ± 5.5 mPa·s; viscosity (303 K, Capillary tube (Ostwald / Ubbelohde) method): 83.35 ± 4.2 mPa·s; viscosity (308 K, Capillary tube (Ostwald / Ubbelohde) method): 66.2 ± 3.3 mPa·s; viscosity (313 K, Capillary tube (Ostwald / Ubbelohde) method): 53.43 ± 2.7 mPa·s; viscosity (318 K, Capillary tube (Ostwald / Ubbelohde) method): 43.76 ± 2.2 mPa·s; viscosity (323 K, Capillary tube (Ostwald / Ubbelohde) method): 36.28 ± 1.8 mPa·s; viscosity (328 K, Capillary tube (Ostwald / Ubbelohde) method): 30.43 ± 1.5 mPa·s; viscosity (333 K, Capillary tube (Ostwald / Ubbelohde) method): 25.77 ± 1.3 mPa·s; viscosity (338 K, Capillary tube (Ostwald / Ubbelohde) method): 22.12 ± 1.1 mPa·s; viscosity (343 K, Capillary tube (Ostwald / Ubbelohde) method): 19.09 ± 0.96 mPa·s; viscosity (348 K, Capillary tube (Ostwald / Ubbelohde) method): 16.61 ± 0.84 mPa·s; viscosity (353 K, Capillary tube (Ostwald / Ubbelohde) method): 14.53 ± 0.73 mPa·s; viscosity (358 K, Capillary tube (Ostwald / Ubbelohde) method): 12.82 ± 0.65 mPa·s; viscosity (363 K, Capillary tube (Ostwald / Ubbelohde) method): 11.4 ± 0.57 mPa·s
9 | CCCCCCCCCCCCn1cc[n+](C)c1.O=S(=O)([N-]S(=O)(=O)C(F)(F)F)C(F)(F)F | – | 384.51 ± 22 | 277.46 ± 15 | 205 ± 11 | 154.33 ± 8.1 | 118.68 ± 6.1 | 93.71 ± 4.8 | 74.49 ± 3.8 | 60.08 ± 3 | 49.11 ± 2.5 | 40.64 ± 2 | 34.01 ± 1.7 | 28.76 ± 1.4 | 24.55 ± 1.2 | 21.14 ± 1.1 | 18.35 ± 0.92 | 16.05 ± 0.81 | – | – | – | viscosity [18]: 14.12 ± 0.71 mPa·s
10 | CCCCCCCCCCn1cc[n+](C)c1.O=S(=O)([N-]S(=O)(=O)C(F)(F)F)C(F)(F)F | 403.2 ± 23 | 287.62 ± 16 | 210.53 ± 11 | 157.52 ± 8.2 | 120.18 ± 6.2 | 93.45 ± 4.8 | 73.92 ± 3.7 | 59.37 ± 3 | 48.36 ± 2.4 | 39.91 ± 2 | 33.32 ± 1.7 | 28.12 ± 1.4 | 23.97 ± 1.2 | 20.62 ± 1 | 17.88 ± 0.9 | 15.63 ± 0.79 | 13.75 ± 0.69 | 159.41 ± 9.8 | 60.51 ± 3.1 | 29.3 ± 1.5 | viscosity [24]: 292.44 ± 22 mPa·s; viscosity [22]: 16.14 ± 0.82 mPa·s; viscosity [23]: 10 ± 0.51 mPa·s; viscosity [25]: 6.8 ± 0.34 mPa·s
11 | CCCC[n+]1ccn(C)c1.O=S(=O)([N-]S(=O)(=O)C(F)(F)F)C(F)(F)F | 137.62 ± 7.1 | 104.14 ± 5.3 | 80.16 ± 4.1 | 62.99 ± 3.2 | 50.62 ± 2.5 | 41.12 ± 2.1 | 33.89 ± 1.7 | 28.28 ± 1.4 | 23.92 ± 1.2 | 20.45 ± 1 | 17.66 ± 0.89 | 15.38 ± 0.77 | 13.5 ± 0.68 | 11.93 ± 0.6 | 10.61 ± 0.53 | 9.501 ± 0.48 | 8.553 ± 0.43 | 63.05 ± 3.2 | 28.63 ± 1.5 | 16 ± 0.81 | viscosity [22]: 9.911 ± 0.5 mPa·s; viscosity [23]: 6.548 ± 0.33 mPa·s; viscosity [25]: 4.785 ± 0.24 mPa·s
